Reference: ChEMBL document CHEMBL6092156, “Design and development of a series of 4-(piperazin-1-yl)pyrimidines as irreversible menin inhibitors” (Eur J Med Chem, 2024)
Values after ≈ are worked out from the molar mass of the structure shown. Active and inactive are the calls of the source. The calls are words filed in the database; no cut-off is given here.

Columns and labels:
[1] = molecular target: Menin/Histone-lysine N-methyltransferase MLL (Homo sapiens, UniProt O00255); experiment: Inhibition of menin (unknown origin)/N-terminal FITC-labeled MLL1 peptide (unknown origin) interaction incubated for 30 min by fluorescence polarization assay; type: protein assay
MV4-11 [2] = experiment: Antiproliferative activity against human menin-sensitive MV4-11 cells assessed as inhibition of cell growth incubated for 7 days by MTS assay; type: functional, cell-based; conditions: MV4-11, 168 h
REH [3] = experiment: Antiproliferative activity against human menin-insensitive REH cells assessed as inhibition of cell growth incubated for 7 days by MTS assay; type: functional, cell-based; conditions: 168 h
[4] = Tmax in female ICR mouse at 5 mg/kg, ip by LC-MS/MS analysis; type: ADME, organism-based; conditions: in vivo
[5] = Cmax in female ICR mouse at 5 mg/kg, ip by LC-MS/MS analysis; type: ADME, organism-based; conditions: in vivo
[6] = AUClast in female ICR mouse at 5 mg/kg, ip by LC-MS/MS analysis; type: ADME, organism-based; conditions: in vivo
[7] = Observed AUCinfinity in female ICR mouse at 5 mg/kg, ip by LC-MS/MS analysis; type: ADME, organism-based; conditions: in vivo
[8] = Observed MRTinfinity in female ICR mouse at 5 mg/kg, ip by LC-MS/MS analysis; type: ADME, organism-based; conditions: in vivo
[9] = Half life in female ICR mouse at 5 mg/kg, ip by LC-MS/MS analysis; type: ADME, organism-based; conditions: in vivo
MV4-11 [10] = experiment: Antiproliferative activity against human MV4-11 cells harboring MLL-AF4 assessed as cell growth inhibition incubated for 7 days by MTS assay; type: functional, cell-based; conditions: MV4-11, 168 h
MOLM-14 = experiment: Antiproliferative activity against human MOLM-14 cells harboring MLL-AF9 assessed as cell growth inhibition incubated for 7 days by MTS assay; type: functional, cell-based; conditions: MOLM-14, 168 h
RS4-11 = experiment: Antiproliferative activity against human RS4;11 cells harboring MLL-AF4 assessed as cell growth inhibition incubated for 7 days by MTS assay; type: functional, cell-based; conditions: RS4-11, 168 h
MOLM-13 = experiment: Antiproliferative activity against human MOLM-13 cells harboring MLL-AF9 assessed as cell growth inhibition incubated for 7 days by MTS assay; type: functional, cell-based; conditions: MOLM-13, 168 h
REH [11] = experiment: Antiproliferative activity against human REH cells assessed as cell growth inhibition incubated for 7 days by MTS assay; type: functional, cell-based; conditions: 168 h
HL-60 = experiment: Antiproliferative activity against human HL-60 cells assessed as cell growth inhibition incubated for 7 days by MTS assay; type: functional, cell-based; conditions: HL-60, 168 h
[12] = Antiproliferative activity against human MINO cells assessed as cell growth inhibition incubated for 7 days by MTS assay; type: functional, cell-based; conditions: 168 h
MV4-11 [13] = experiment: Downregulation of MEIS1 expression level in human MV4-11 cells at 10 uM incubated for 48 hrs by qRT-PCR analysis; type: functional, cell-based
MV4-11 [14] = experiment: Downregulation of HOXA9 expression level in human MV4-11 cells at 10 uM incubated for 48 hrs by qRT-PCR analysis; type: functional, cell-based
MV4-11 [15] = experiment: Inhibition of menin protein expression in human MV-4-11 cells measured after 48 hrs incubation by Western blot analysis; type: functional, cell-based; conditions: dose 1-37 µM
REH [16] = experiment: Downregulation of HOXA9 expression level in human REH cells at 10 uM incubated for 48 hrs by qRT-PCR analysis; type: functional, cell-based
REH [17] = experiment: Downregulation of MEIS1 expression level in human REH cells at 10 uM incubated for 48 hrs by qRT-PCR analysis; type: functional, cell-based
[18] = system: Acute myeloid leukemic cell; experiment: Induction of cell differentiation in human acute myeloid leukemia patient-derived cells assessed as increase in CD11b at 150 nM incubated for 7 days by cytoFLEX flow cytometric analysis; type: functional, cell-based; conditions: time 7.0 day
MV4-11 [19] = experiment: Antiproliferative activity against human MV4-11 cells assessed as reduction in cell viability incubated for 7 days and measured after compound washout; type: functional, cell-based; conditions: time 7.0 day
MV4-11 [20] = experiment: Antiproliferative activity against human MV4-11 cells assessed as reduction in cell viability preincubated for 7 days and followed by compound washout and measured on day 14 after compound readdition; type: functional, cell-based; conditions: time 21.0 day
MV4-11 [21] = experiment: Antiproliferative activity against human MV4-11 cells assessed as reduction in cell viability at 100 nM preincubated for 7 days and followed by compound washout and measured on day 14 after compound readdition; type: functional, cell-based; conditions: time 21.0 day
MV4-11 [22] = experiment: Antiproliferative activity against human MV4-11 cells assessed as reduction in cell viability at 50 nM incubated for 7 days and measured after compound washout relative to control; type: functional; conditions: time 7 day
MV4-11 [23] = experiment: Antiproliferative activity against human MV4-11 cells assessed as reduction in cell viability at 80 nM preincubated for 7 days and followed by compound washout and measured on day 14 after compound readdition relative to control; type: functional; conditions: time 21 day
[24] = Solubility of compound in water by HPLC analysis; type: physicochemical
MV4-11 [25] = experiment: Antitumor activity against human MV4-11 cells xenografted in ip treated nu/nu mouse model assessed as tumor growth inhibition measured upto 15 days; type: functional, organism-based; conditions: dose 10-20 mg/kg, time <= 15.0 day
MV4-11 [26] = experiment: Antitumor activity against human MV4-11 cells xenografted in nu/nu mouse model assessed as tumor growth rate at 10 mg/kg, ip bid for 15 days measured twice a week during compound dosing by caliper method relative to control; type: functional; conditions: time 15 day
MV4-11 [27] = experiment: Antitumor activity against human MV4-11 cells xenografted in nu/nu mouse model assessed as tumor growth rate at 20 mg/kg, ip bid for 15 days measured twice a week during compound dosing by caliper method relative to control; type: functional; conditions: time 15 day
[28] = Toxicity in nu/nu mouse model assessed as body weight loss at 10 to 20 mg/kg, ip bid for 15 days measured twice a week during compound dosing; type: organism-based; conditions: in vivo, 360 h, dose 10-20 mg/kg, time 15 day
[29] = Cytotoxicity against human PBMC cells assessed as cell viability incubated for 7 days by MTS assay; type: toxicity, cell-based
MV4-11 [30] = experiment: Suppression of MEN1 gene transcription in human MV4-11 cells incubated for 48 hrs by relative gene expression assay; type: functional, cell-based
[31] = Suppression of MEN1 gene transcription in human MV4-11 cells assessed as protein synthesis by measuring fold change at 10 uM incubated for 48 hrs relative to control; type: functional
[32] = Suppression of MEN1 gene transcription in human MV4-11 cells assessed as protein synthesis by measuring fold change at 10 uM incubated for 48 hrs in presence of 20 nM carfilzomib relative to control; type: functional
[33] = Suppression of MEN1 gene transcription in human MV4-11 cells assessed as protein synthesis by measuring fold change at 10 uM incubated for 12 hrs in presence of 50 ug/ml cycloheximide relative to control; type: functional
[34] = Suppression of MEN1 gene transcription in human MV4-11 cells assessed as protein synthesis by measuring fold change at 10 uM incubated for 24 hrs in presence of 50 ug/ml cycloheximide relative to control; type: functional
[35] = Suppression of MEN1 gene transcription in human MV4-11 cells assessed as protein synthesis by measuring fold change at 10 uM incubated for 36 hrs in presence of 50 ug/ml cycloheximide relative to control; type: functional
[36] = Suppression of MEN1 gene transcription in human MV4-11 cells assessed as protein synthesis by measuring fold change at 10 uM incubated for 48 hrs in presence of 50 ug/ml cycloheximide relative to control; type: functional

Chain of Menin/Histone-lysine N-methyltransferase MLL (O00255 whole entry): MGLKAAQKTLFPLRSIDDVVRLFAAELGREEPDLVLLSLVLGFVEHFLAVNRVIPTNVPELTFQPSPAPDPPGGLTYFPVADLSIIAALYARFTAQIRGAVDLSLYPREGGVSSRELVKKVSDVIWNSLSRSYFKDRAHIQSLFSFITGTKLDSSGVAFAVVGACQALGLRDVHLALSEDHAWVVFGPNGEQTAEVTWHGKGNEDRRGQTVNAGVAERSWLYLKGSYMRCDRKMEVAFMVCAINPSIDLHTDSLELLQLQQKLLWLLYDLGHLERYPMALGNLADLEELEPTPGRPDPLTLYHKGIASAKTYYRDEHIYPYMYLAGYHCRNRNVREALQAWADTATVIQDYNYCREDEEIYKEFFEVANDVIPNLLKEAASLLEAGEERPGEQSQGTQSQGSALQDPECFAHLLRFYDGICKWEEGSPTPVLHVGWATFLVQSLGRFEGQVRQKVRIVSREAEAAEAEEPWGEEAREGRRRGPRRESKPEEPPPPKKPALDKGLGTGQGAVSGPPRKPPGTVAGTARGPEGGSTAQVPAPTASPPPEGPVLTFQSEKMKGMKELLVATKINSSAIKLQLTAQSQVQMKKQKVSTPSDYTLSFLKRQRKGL
Chain of Menin/Histone-lysine N-methyltransferase MLL (Q03164 1-2718 partner limits assumed): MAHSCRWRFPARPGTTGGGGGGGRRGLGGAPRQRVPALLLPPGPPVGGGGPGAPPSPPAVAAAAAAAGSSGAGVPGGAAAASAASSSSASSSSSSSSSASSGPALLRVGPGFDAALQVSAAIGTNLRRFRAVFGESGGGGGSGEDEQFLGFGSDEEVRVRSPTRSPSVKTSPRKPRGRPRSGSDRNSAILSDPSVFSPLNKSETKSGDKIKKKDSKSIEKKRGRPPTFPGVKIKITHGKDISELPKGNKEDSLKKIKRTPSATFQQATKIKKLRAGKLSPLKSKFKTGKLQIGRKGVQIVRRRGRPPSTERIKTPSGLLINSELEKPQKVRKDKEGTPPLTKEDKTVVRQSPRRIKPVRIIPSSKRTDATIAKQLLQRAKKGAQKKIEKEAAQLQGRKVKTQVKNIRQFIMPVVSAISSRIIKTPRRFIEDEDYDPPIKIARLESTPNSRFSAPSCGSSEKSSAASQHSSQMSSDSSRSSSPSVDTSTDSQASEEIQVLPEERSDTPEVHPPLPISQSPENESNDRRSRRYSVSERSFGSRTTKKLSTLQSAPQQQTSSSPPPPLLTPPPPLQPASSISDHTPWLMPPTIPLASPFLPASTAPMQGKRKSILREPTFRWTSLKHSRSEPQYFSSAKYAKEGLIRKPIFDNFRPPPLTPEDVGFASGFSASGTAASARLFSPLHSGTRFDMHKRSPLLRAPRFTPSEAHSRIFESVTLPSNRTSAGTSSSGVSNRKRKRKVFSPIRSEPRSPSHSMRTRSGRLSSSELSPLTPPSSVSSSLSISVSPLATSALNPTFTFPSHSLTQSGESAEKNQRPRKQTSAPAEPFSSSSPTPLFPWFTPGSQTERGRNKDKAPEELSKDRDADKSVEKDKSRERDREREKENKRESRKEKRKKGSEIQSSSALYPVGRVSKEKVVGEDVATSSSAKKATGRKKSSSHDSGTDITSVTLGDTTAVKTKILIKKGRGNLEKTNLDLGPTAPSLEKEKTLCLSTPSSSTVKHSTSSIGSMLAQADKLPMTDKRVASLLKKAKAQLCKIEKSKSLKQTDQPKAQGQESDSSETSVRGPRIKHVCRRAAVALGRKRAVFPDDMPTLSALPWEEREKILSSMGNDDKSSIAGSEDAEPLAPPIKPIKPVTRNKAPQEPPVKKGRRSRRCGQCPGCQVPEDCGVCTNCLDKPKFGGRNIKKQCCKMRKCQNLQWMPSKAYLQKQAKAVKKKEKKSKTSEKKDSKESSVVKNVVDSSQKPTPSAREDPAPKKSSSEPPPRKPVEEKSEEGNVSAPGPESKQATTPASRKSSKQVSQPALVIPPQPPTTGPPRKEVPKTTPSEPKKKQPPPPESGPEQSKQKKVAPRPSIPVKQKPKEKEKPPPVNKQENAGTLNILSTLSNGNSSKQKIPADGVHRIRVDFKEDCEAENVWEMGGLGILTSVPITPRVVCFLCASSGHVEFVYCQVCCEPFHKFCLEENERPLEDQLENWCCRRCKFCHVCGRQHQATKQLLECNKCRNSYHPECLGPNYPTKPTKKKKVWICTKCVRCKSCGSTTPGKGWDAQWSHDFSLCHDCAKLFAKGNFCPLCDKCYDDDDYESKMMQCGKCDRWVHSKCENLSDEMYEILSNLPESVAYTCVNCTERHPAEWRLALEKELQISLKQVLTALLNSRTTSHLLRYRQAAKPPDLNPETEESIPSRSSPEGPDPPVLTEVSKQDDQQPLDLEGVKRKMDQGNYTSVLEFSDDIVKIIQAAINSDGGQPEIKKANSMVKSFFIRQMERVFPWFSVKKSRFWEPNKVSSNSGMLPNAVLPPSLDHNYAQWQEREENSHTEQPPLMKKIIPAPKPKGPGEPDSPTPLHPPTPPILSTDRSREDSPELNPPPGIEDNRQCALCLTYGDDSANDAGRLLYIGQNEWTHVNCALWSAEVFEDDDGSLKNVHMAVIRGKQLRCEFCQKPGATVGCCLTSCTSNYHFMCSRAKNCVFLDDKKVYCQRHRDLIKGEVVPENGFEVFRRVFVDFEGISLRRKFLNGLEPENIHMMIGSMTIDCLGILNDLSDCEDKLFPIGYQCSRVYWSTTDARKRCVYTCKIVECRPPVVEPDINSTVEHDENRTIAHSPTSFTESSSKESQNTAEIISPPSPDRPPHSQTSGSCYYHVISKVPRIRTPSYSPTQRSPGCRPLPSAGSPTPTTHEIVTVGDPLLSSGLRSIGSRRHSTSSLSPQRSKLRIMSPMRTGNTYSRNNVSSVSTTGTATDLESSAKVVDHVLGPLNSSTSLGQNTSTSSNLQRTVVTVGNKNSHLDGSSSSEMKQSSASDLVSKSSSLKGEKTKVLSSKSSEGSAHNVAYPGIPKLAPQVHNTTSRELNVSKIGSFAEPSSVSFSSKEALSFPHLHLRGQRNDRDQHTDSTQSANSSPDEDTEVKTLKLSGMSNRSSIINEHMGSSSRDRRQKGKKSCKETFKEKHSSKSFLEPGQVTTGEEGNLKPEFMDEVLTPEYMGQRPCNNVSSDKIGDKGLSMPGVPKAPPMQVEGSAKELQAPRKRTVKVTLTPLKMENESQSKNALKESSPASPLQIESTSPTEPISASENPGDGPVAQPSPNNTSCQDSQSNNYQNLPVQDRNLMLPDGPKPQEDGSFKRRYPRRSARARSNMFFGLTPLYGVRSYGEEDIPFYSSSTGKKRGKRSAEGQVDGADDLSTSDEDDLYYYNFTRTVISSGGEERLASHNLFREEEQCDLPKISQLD
Chain of Menin/Histone-lysine N-methyltransferase MLL (Q03164 2719-3969 partner limits assumed): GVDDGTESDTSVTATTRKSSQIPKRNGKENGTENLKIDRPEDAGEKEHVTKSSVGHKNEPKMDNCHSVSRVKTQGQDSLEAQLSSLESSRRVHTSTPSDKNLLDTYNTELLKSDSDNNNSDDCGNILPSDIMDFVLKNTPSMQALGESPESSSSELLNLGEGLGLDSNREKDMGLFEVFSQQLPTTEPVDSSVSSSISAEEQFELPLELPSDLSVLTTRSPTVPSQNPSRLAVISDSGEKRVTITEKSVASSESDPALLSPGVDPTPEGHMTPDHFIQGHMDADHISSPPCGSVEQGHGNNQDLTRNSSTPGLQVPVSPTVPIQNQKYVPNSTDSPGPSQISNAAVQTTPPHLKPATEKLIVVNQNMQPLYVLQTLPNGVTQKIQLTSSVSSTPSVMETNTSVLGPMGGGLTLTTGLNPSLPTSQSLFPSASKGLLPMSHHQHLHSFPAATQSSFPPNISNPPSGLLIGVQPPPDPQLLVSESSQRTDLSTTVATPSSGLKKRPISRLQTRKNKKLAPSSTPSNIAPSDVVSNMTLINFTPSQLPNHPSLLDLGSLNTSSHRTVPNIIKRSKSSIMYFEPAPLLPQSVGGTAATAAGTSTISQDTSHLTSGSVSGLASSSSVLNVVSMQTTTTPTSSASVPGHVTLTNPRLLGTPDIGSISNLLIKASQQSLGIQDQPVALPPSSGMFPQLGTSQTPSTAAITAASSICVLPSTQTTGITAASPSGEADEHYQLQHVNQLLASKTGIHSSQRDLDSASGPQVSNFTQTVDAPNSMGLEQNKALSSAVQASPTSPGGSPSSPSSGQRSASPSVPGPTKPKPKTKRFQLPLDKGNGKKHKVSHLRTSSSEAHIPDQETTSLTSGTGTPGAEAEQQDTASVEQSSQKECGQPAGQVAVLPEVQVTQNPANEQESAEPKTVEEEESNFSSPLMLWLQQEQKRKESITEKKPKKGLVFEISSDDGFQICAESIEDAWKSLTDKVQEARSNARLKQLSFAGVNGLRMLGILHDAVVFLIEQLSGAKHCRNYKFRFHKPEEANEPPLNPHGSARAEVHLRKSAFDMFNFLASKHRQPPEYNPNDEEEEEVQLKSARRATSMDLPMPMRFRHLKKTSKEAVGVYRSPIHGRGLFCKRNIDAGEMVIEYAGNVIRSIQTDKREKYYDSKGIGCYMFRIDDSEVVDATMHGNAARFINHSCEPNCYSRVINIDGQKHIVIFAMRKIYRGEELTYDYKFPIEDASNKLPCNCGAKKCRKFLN

## CCN(C(=O)c1cc(F)ccc1Nc1cncnc1N1CCN(CC2CN(c3ccc(S(=O)(=O)C4CN(C(=O)/C=C/CN(C)C)C4)cc3)C2)C(C)C1)C(C)C (stereo not given)
[1]
  IC50: 18.2 nM
MV4-11 [2]
  IC50: 30 nM
REH [3]
  IC50: 8400 nM
[4]
  Tmax: 0.25 h
[5]
  Cmax: 980 ng/mL
[6]
  AUC(0-t): 1150 ng·h/mL
[7]
  AUC(0-inf): 1230 ng·h/mL
[8]
  MRT inf: 1.85 h
[9]
  half-life: 1.59 h
MV4-11 [10]
  IC50: 49 nM
MOLM-14
  IC50: 103 nM
RS4-11
  IC50: 272 nM
MOLM-13
  IC50: 221 nM
REH [11]
  IC50: > 3000 nM
HL-60
  IC50: > 3000 nM
[12]
  IC50: > 3000 nM
MV4-11 [13]
  Activity: Active
MV4-11 [14]
  Activity: Active
MV4-11 [15]
  Activity: Dose-dependent-effect; Significantly Greater Inhibition At 10 Um Than That Of Sndx-5613
REH [16]
  Activity: Active; Little Impact Observed
REH [17]
  Activity: Active; Little Impact Observed
[18]
  Activity: Active
MV4-11 [19]
  Activity: inactive
MV4-11 [20]
  Activity: Dose-dependent-effect
MV4-11 [21]
  Activity: Active
MV4-11 [22]
  Activity: 100%
MV4-11 [23]
  Activity: 100%
[24]
  solubility: 1230 µg/mL (≈ 1590 µM)
MV4-11 [25]
  Activity: Dose-dependent-effect
MV4-11 [26]
  Activity: 55.64%
MV4-11 [27]
  Activity: 35.85%
[28]
  Activity: Non-toxic
[29]
  IC50 at 7 days: > 3000 nM
MV4-11 [30]
  Activity: Active
[31]
  fold change (FC): 0.08
[32]
  fold change (FC): 0.14
[33]
  fold change (FC): 0.69
[34]
  fold change (FC): 0.31
[35]
  fold change (FC): 0.21
[36]
  fold change (FC): 0.25
